Activity calls are given as the source filed them. How the calls were made is not given here.

Results on 72 molecules are retold here after PubChem BioAssay AID1549 (Sanford-Burnham Center for Chemical Genomics, 2009).

The test has as its target Influenza A virus M2 proton channel (A/TW/4845/1999 H1N1). The test can be described thus: NMR binding screen, influenza A virus M2 proton channel, Kd (AID 1549). The following applies: M2 protein.
Broadly, the Kd is the constant that tells how readily two partners part at equilibrium. In the case of `O=c1oc(-c2ccccc2)nc2c1cnn2-c1ccccc1`, the Kd was > 4 mM (inactive).
As for `O=C(c1cccnc1Cl)N1CCOCC1`, the Kd is > 4 mM (inactive).
In the case of `Nc1c(N2CCCC2)cnn(-c2ccccc2)c1=O` it was > 4 mM (inactive).
Under `CC(=O)Oc1cccc2ccc(=O)[nH]c12` stands > 4 mM (inactive); under `O=C(NCc1cccs1)c1nc2ncccn2n1`, > 4 mM (inactive); under `CN(C(=O)NC1CCS(=O)(=O)C1)C1CCCCC1` (configuration not stated), > 4 mM (inactive).
Under `CC(=O)c1c(O)cc(O)cc1O` stands > 4 mM (inactive).
`O=C(Nn1cnnc1)c1ccccc1Cl`: the Kd was > 4 mM (inactive).
Under `COC(=O)CCSCC(=O)Nc1nnc(C)s1` stands > 4 mM (inactive); under `COc1cccc2onc(N)c12`, > 4 mM (inactive); under `CC(=O)N(c1ccccc1)C1C=CS(=O)(=O)C1` (configuration not stated), > 4 mM (inactive).
Under `Cn1c(CNc2ccccc2)cc(=O)n(C)c1=O` stands > 4 mM (inactive); under `OCC1CCCN2CCCCC12` (configuration not stated), > 4 mM (inactive); under `O=C(CS(=O)(=O)c1ccccc1)Nc1nccs1`, > 4 mM (inactive).
Under `CC(=O)N=c1cccc(NC(C)=O)n1O` stands > 4 mM (inactive).
Take `COC(=O)c1cccc(C(F)(F)F)c1`: the Kd is > 4 mM (inactive).
In the case of `CC(=O)N1CCN(c2ccc(N)cc2)CC1` it was > 4 mM (inactive); in that of `O=[N+]([O-])c1cccc(-c2c[n+](=O)c3c(n2[O-])CCC3)c1`, > 4 mM (inactive); in that of `COC(=O)c1ccc2nsnc2c1`, > 4 mM (inactive).
In the case of `COCCn1cnc2cc(C)c(C)cc21` it was > 4 mM (inactive); in that of `C[C@@H]1C(=O)OC2[C@H](O)C34[C@@H]5OC(=O)[C@@]3(O[C@@H]3OC(=O)[C@H](O)[C@@]34[C@H](C(C)(C)C)[C@H]5O)[C@]21O` (some centres not stated), > 4 mM (inactive).
Under `CC1(C)Oc2ccc(N)cc2O1` stands > 4 mM (inactive).
Turning to `Cn1c(=O)c2c(n(C)c1=O)=NC1(CCCCC1)N=2`, the Kd is > 4 mM (inactive).
In the case of `OCc1cccc2nonc12` it was > 4 mM (inactive).
In the case of `Cc1cc(C(=O)N2CCN(S(C)(=O)=O)CC2)cs1` it was > 4 mM (inactive); in that of `O=C(O)c1ccccc1N1CCOCC1`, > 4 mM (inactive); in that of `Cc1nc(-c2cccc(C(=O)O)c2)cs1`, > 4 mM (inactive).
Under `COCC(=O)Nc1nc2ccc(C)cc2s1` stands > 4 mM (inactive); under `CC(=O)c1ccc2c(c1)OCCO2`, > 4 mM (inactive); under `O=C(Nc1ccon1)c1ccc(Br)o1`, > 4 mM (inactive).
Take `Cc1nc2ccccc2c(=O)n1N1C(=O)CCCC1=O`: the Kd was > 4 mM (inactive).
Under `CC(CCC(=O)O)[C@H]1CCC2C3CC[C@@H]4C[C@H](O)CC[C@]4(C)C3C[C@H](O)[C@@]21C` (some centres not stated) stands > 4 mM (inactive).
Under `NC(=S)NC(=O)CN1C(=O)c2ccccc2C1=O` stands > 4 mM (inactive); under `Cn1c([O-])c([N+](C)(C)C)c(=O)n(C)c1=O`, > 4 mM (inactive).
In the case of `O=c1c2c(nc3nc(Cc4ccccc4)[nH]n13)CCC2` it was > 4 mM (inactive); in that of `Cn1c(SCC(=O)NCCO)nc2ccccc2c1=O`, > 4 mM (inactive).
As for `NC(=O)C1CCN(c2ncnc(N)c2[N+](=O)[O-])CC1`, the Kd was > 4 mM (inactive).
Under `Cc1ccc2c(c1)CC[C@H]1CC(=O)CC[C@]21C` stands > 4 mM (inactive).
In the case of `CCC(=O)NC(=S)Nc1ccc(O)cc1` it was > 4 mM (inactive).
In the case of `CC(C)(C)c1cc(NC(=O)c2cccnc2)no1` it was > 4 mM (inactive); in that of `O=C(NN1C(=O)CSC1=S)c1ccccc1`, > 4 mM (inactive); in that of `Cc1noc(-c2ccccc2)c1C(=O)O`, > 4 mM (inactive).
As for `O=c1ccnc(Nc2ccccc2O)[nH]1`, the Kd was > 4 mM (inactive).
In the case of `NC(=O)CSc1ccccn1` it was > 4 mM (inactive).
As for `Cc1csc2nc(N)nn12`, the Kd was > 4 mM (inactive).
In the case of `CC(C)Nc1ncnc2c1nnn2C` it was > 4 mM (inactive); in that of `COC(CC(=O)O)c1nc2ccccc2s1` (configuration not stated), > 4 mM (inactive); in that of `CCOC(=O)Cc1cc(=O)n2[nH]c(C)cc2n1`, > 4 mM (inactive).
In the case of `C[C@@H]1O[C@@H](O[C@H]2C[C@@H](O)[C@]3(CO)C4C(CC[C@]3(O)C2)[C@@]2(O)CC[C@H](C3=CC(=O)OC3)[C@@]2(C)C[C@H]4O)[C@H](O)[C@H](O)[C@H]1O` (some centres not stated) it was > 4 mM (inactive); in that of `CC(=O)Nc1cccc(N2CCCC2=O)c1`, > 4 mM (inactive).
Under `COCc1cc(=O)oc2cc(O)c(Cl)cc12` stands > 4 mM (inactive).
Turning to `CCCCn1c(=O)cc(O)c2ccccc21`, the Kd is > 4 mM (inactive).
For `NCc1ccc(S(=O)(=O)O)cc1`, the Kd is > 4 mM (inactive).
Under `O=C(Nc1ccccc1C(F)(F)F)N1CCCCCC1` stands > 4 mM (inactive); under `CC(=O)Nc1ccc2c(c1)CCCC2=O`, > 4 mM (inactive); under `Cc1cc(N)no1`, > 4 mM (inactive).
Under `O=C1C2C3C=CC(C3)C2C(=O)N1c1nccs1` (configuration not stated) stands > 4 mM (inactive); under `O=c1oc2ccccc2cc1O`, > 4 mM (inactive).
Under `CCCNC(=O)c1cnc2n(c1=O)CCS2` stands > 4 mM (inactive).
`Cc1n[nH]c(C)c1NC(=O)c1cccc(F)c1`: the Kd was > 4 mM (inactive).
In the case of `CC1=C(/C=C/C(C)=C/C=C/C(C)=C/CO)C(C)(C)CCC1` it was > 4 mM (inactive); in that of `Cc1cccc(NC(=O)NC(N)=O)c1`, > 4 mM (inactive).
Under `COC(=O)C[C@H]1C2(C)CC34OC5(C)O[C@@]6([C@H](OC)C(OC(=O)C(C)C)[C@]7(C)C(/C(=C(/OC)C(C)C)C(=O)O[C@H]7c7ccoc7)[C@@]6(O5)[C@H](OC)[C@@]3(OC)C2OC(C)=O)[C@]14C` (some centres not stated) stands > 4 mM (inactive).
Turning to `COc1ccc(C(=O)O)cc1OC`, the Kd was > 4 mM (inactive).
Take `O=C1C[C@@H](c2ccc(O)cc2)Oc2cc(O)cc(O)c21`: the Kd is > 4 mM (inactive).
In the case of `NC1=NC(=O)CC(C(=O)Nc2ccccc2)S1` (configuration not stated) it was > 4 mM (inactive); in that of `O=S1(=O)C=CC(Nc2ccccc2)C1` (configuration not stated), > 4 mM (inactive); in that of `C[C@H]1OC(O[C@H]2[C@@H](O)CC(O[C@H]3[C@@H](O)C[C@H](O[C@H]4CC[C@]5(C)C6CC[C@]7(C)[C@@H](C8=CC(=O)OC8)[C@@H](O)C[C@]7(O)[C@@H]6CC[C@@H]5C4)O[C@@H]3C)O[C@@H]2C)C[C@H](O)C1O` (some centres not stated), > 4 mM (inactive).
Under `O=C(CSc1ncn[nH]1)c1ccc2c(c1)OCO2` stands > 4 mM (inactive).
Under `O=C(Nn1cnnc1)c1csc2ccccc12` stands > 4 mM (inactive); under `O=C(O)C1CN2CCC1CC2` (configuration not stated), > 4 mM (inactive).
In the case of `O=C(NC1=NCCS1)c1ccc([N+](=O)[O-])cc1Cl`, the Kd is > 4 mM (inactive).
